“Also recorded” adds a separate entry of the source.
Legend:
S1R [1] = conditions: co-crystallized ligand; no reference given; read-out: KiS1R; cited from earlier work
S2R = biological target: T1, S2R (Rattus norvegicus, UniProt Q5U3Y7); experiment: S2R radioligand binding assay with [3H]DTG; conditions: for binding to S2R (in words): radioligand binding; for Ki: read-out: Ki ± SD S2R, rat liver homogenates, [3H]DTG, (+)-pentazocine as S1R masking agent, mean ± SD of at least two experiments in duplicate
T1 sequence (Q5U3Y7 1-176): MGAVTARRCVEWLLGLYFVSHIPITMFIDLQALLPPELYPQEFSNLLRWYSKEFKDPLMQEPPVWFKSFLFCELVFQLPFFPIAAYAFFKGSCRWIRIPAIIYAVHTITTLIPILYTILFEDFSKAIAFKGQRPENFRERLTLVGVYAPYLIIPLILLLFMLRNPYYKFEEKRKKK

S1R [2] = biological target: T2, S1R (Rattus norvegicus, UniProt Q9R0C9); experiment: S1R radioligand binding assay with [3H](+)-pentazocine; conditions: for binding to S1R (in words): radioligand binding; for Ki: read-out: Ki ± SD S1R, rat liver homogenates, [3H](+)pentazocine, mean ± SD of at least two experiments in duplicate; for KiS2R/KiS1R ratio: selectivity over S2R
S1R [3] = biological target: T2, S1R; experiment: S1R functional assay (phenytoin method, [3H](+)-pentazocine displacement); type: binding; design: liver homogenates from male Sprague Dawley rats; from tissue; host or cells: rat liver homogenate (male Sprague Dawley); conditions: rat liver; for ratio of Ki without phenytoin/with phenytoin: agonist if ratio >1, antagonist if ≤1
Description: Phenytoin is an allosteric modulator for the S1R, and it differentially modulates the affinity of S1R ligands on the basis of their agonist or antagonist profile.[22,23]
The experiments were performed one time in the presence of phenytoin and one time without phenytoin. […] The incubation of samples lasts 120 min at 37 °C. Unlabeled (+)-pentazocine (10 μM) was used to measure non-specific binding.
GraphPad Prism® 7.0 (GraphPad Software, San Diego, CA, USA) program was used to calculate the Ki values that are given as mean value ± SD from at least two independent experiments performed in duplicate.

T2 sequence (Q9R0C9 whole entry): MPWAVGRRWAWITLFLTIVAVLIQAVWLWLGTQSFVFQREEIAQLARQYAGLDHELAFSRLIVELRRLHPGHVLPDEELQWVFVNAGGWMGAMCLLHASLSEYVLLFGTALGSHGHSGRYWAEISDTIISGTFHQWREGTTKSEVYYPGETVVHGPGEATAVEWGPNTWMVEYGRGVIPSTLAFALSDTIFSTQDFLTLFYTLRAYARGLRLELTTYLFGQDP

O=C(NC1CCN(Cc2ccccc2)CC1)c1ccc(I)cc1 [4-IBP]
Ki (S1R [1]): 1.7 nM

O=C(c1ccc(-c2ccccc2)cc1)N1CCN(c2ccc(O)cc2)CC1 [Compound 13]
binding to S2R (in words) (S2R): failed to bind; also recorded: did not bind
Ki (S2R): > 10000 nM
binding to S1R (in words) (S1R [2]): failed to bind; also recorded: did not bind
Ki (S1R [2]): > 10000 nM

O=C(CCN1CCC(Cc2ccc(F)cc2)CC1)N1CCN(c2ccc(O)cc2)CC1 [Compound 5]
Ki (S2R): 610 ± 146 nM
Ki (S1R [2]): 434 ± 47 nM

O=C(CN1CCC(Cc2ccccc2)CC1)N1CCN(c2ccc(O)cc2)CC1 [Compound 2]
Ki (S2R): 1200 ± 226 nM
Ki (S1R [2]): 24 ± 5 nM
KiS2R/KiS1R ratio (S1R [2]): 50

O=C(CCN1CCC(Cc2ccccc2)CC1)N1CCN(c2ccc(O)cc2)CC1 [Compound 4]
Ki (S2R): 1000 ± 203 nM
Ki (S1R [2]): 328 ± 58 nM

O=C(CCN1CCC(Cc2ccccc2)CC1)N1CCN(c2ccccc2)CC1 [Compound 3]
Ki (S2R): 234 ± 43 nM
Ki (S1R [2]): 8.9 ± 1.3 nM
KiS2R/KiS1R ratio (S1R [2]): 26

O=C(Cc1ccccc1Br)N1CCN(Cc2ccc(F)cc2)CC1 [Compound 10]
Ki (S2R): > 10000 nM
Ki (S1R [2]): 366 ± 80 nM

O=C(CN1CCC(Cc2ccccc2)CC1)N1CCN(c2ccccc2)CC1 [Compound 1, 2-[4-(benzyl)-1-piperidin-1-yl]-1-4-(4-phenylpiperazin-1-yl)ethanone]
Ki (S2R): 104 ± 15 nM
Ki (S1R [2]): 3.2 ± 0.7 nM
KiS2R/KiS1R ratio (S1R [2]): 33
S1R functional profile (S1R [3]; phenytoin assay): S1R agonist
ratio of Ki without phenytoin/with phenytoin (S1R [3]): 1.8

O=C(c1cc2ccccc2s1)N1CCN(Cc2ccc(F)cc2)CC1 [Compound 6]
Ki (S2R): > 10000 nM
Ki (S1R [2]): 82 ± 18 nM

Cc1ccc(C(=O)N2CCN(Cc3ccc(F)cc3)CC2)o1 [Compound 8]
Ki (S2R): > 10000 nM
Ki (S1R [2]): 214 ± 29 nM

O=C(c1ccccc1)N1CCN(c2ccc(O)cc2)CC1 [Compound 12]
binding to S2R (in words) (S2R): failed to bind; also recorded: did not bind
Ki (S2R): > 10000 nM
binding to S1R (in words) (S1R [2]): failed to bind; also recorded: did not bind
Ki (S1R [2]): > 10000 nM

C=CCN1CC[C@]2(C)c3cc(O)ccc3C[C@H]1[C@H]2C [SKF-10 047, reference compound]
ratio of Ki without phenytoin/with phenytoin (S1R [3]): 3.2

O=C(c1ccc([N+](=O)[O-])s1)N1CCN(Cc2ccc(F)cc2)CC1 [Compound 9]
Ki (S2R): > 10000 nM
Ki (S1R [2]): 309 ± 55 nM

O=C(C(c1ccccc1)c1ccccc1)N1CCN(Cc2ccc(F)cc2)CC1 [Compound 11]
Ki (S2R): > 10000 nM
Ki (S1R [2]): 390 ± 77 nM

O=C(c1cc2ccccc2o1)N1CCN(Cc2ccc(F)cc2)CC1 [Compound 7]
Ki (S2R): > 10000 nM
Ki (S1R [2]): 132 ± 27 nM

Reference: publication PMC10507793, “Discovery and computational studies of piperidine/piperazine-based compounds endowed with sigma receptor affinity” (RSC Medicinal Chemistry, 2023)
